{"source": "ChEMBL document CHEMBL5370624", "about": "(J Med Chem, 2023)", "key": {"Toll-like receptor 4 [1]": {"biological_target": "T1, Toll-like receptor 4 (Homo sapiens, UniProt O00206)", "T1 sequence (O00206 whole entry)": "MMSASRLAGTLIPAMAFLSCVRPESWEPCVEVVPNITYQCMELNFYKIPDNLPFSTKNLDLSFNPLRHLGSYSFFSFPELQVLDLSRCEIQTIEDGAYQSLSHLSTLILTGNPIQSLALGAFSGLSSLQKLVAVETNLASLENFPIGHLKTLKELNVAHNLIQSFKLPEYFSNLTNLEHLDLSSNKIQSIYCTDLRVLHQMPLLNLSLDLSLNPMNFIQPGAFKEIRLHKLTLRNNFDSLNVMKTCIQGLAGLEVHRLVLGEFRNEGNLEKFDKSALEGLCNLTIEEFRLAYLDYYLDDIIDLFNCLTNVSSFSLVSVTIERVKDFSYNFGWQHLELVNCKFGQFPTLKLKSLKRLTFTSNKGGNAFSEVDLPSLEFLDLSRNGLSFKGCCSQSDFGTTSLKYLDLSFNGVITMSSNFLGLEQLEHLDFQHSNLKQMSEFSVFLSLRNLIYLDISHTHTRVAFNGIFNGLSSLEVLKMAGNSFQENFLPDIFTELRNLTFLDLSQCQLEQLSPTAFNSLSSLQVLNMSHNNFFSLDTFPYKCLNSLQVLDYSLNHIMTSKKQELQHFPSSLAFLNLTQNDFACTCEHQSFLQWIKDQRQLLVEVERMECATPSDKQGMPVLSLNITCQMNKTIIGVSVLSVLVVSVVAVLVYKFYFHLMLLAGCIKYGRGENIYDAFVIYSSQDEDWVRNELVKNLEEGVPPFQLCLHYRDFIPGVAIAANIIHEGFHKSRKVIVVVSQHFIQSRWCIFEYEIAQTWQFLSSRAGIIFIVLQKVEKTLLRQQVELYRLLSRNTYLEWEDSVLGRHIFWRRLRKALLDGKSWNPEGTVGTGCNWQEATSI", "test": "Agonist activity at human TLR4 in human HEK-Blue hTLR4 cells assessed as NF-kappaB activation incubated for 48 hrs by SEAP reporter gene based Quanti-blue assay", "format": "cell-based"}, "Toll-like receptor 4 [2]": {"biological_target": "T2, Toll-like receptor 4 (Mus musculus, UniProt Q9QUK6)", "T2 sequence (Q9QUK6 whole entry)": "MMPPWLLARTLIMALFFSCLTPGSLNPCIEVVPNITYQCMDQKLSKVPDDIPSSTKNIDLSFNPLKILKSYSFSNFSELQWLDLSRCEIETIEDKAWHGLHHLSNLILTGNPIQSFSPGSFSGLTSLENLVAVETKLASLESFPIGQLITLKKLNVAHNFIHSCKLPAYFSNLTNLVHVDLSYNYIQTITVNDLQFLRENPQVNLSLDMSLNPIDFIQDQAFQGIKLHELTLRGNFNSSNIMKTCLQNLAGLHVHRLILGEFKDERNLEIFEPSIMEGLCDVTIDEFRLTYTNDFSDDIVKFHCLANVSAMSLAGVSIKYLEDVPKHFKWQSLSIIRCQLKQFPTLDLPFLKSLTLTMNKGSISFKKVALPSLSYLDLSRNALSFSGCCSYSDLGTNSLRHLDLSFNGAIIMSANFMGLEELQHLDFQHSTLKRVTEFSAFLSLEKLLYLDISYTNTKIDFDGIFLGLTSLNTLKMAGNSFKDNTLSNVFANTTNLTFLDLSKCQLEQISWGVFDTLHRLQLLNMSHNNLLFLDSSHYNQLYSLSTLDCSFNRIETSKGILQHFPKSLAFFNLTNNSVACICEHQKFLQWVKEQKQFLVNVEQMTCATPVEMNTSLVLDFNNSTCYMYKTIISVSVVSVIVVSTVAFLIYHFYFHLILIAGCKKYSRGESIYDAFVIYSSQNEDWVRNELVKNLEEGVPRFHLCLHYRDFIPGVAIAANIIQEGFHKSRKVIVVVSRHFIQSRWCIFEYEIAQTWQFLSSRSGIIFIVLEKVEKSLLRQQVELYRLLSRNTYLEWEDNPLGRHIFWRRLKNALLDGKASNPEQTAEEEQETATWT", "test": "Agonist activity at TLR4 in mouse RAW264.7 cells assessed as induction of MIP-1beta release incubated for 24 hrs by ELISA", "format": "cell-based"}, "[3]": {"test": "Aqueous stability of the compound assessed as drug degradation at 40 degreeC and measured after 3 months by LC-MS analysis", "format": "physicochemical", "conditions": "buffer, 2190 h"}, "Toll-like receptor 4 [4]": {"biological_target": "T2, Toll-like receptor 4", "test": "Agonist activity at mouse TLR4 in human HEK-Blue mTLR4 cells assessed as NF-kappaB activation incubated for 48 hrs by SEAP reporter gene based Quanti-blue assay", "format": "cell-based"}, "Toll-like receptor 4 [5]": {"biological_target": "T1, Toll-like receptor 4", "test": "Agonist activity at TLR4 in human MONO-MAC-6 cells assessed as induction of MIP-1beta release incubated for 24 hrs by ELISA", "format": "cell-based"}, "Toll-like receptor 4 [6]": {"biological_target": "T1, Toll-like receptor 4", "test": "Agonist activity at TLR4 in human PBMC cells assessed as induction of MIP-1beta release incubated for 20 hrs by ELISA", "format": "cell-based"}, "Toll-like receptor 4 [7]": {"biological_target": "T1, Toll-like receptor 4", "test": "Agonist activity at TLR4 in human PBMC cells assessed as induction of TNFalpha release incubated for 20 hrs by ELISA", "format": "cell-based"}, "Toll-like receptor 4 [8]": {"biological_target": "T1, Toll-like receptor 4", "test": "Agonist activity at TLR4 in human PBMC cells assessed as induction of IL-1beta release incubated for 20 hrs by ELISA", "format": "cell-based"}, "Toll-like receptor 4 [9]": {"biological_target": "T1, Toll-like receptor 4", "test": "Agonist activity at TLR4 in human PBMC cells assessed as induction of RANTES release incubated for 20 hrs by ELISA", "format": "cell-based"}, "Mus musculus [10]": {"species_on_record": "Mus musculus", "test": "Immuno-adjuvant activity in H3N2-split A/Victoria/210/2009 influenza virus-immunized BALB/c mouse model assessed as increase in influenza specific serum IgG titer level at 0.001 to 0.1 ug,IM and measured after 14 days by ELISA", "format": "functional, organism-based", "conditions": "dose 0.001-0.1 µg, time 14.0 day"}, "Mus musculus [11]": {"species_on_record": "Mus musculus", "test": "Immuno-adjuvant activity in H3N2-split A/Victoria/210/2009 influenza virus-immunized BALB/c mouse model assessed as increase in influenza specific serum IgG1 titer level at 0.001 to 0.1 ug,IM and measured after 14 days by ELISA", "format": "functional, organism-based", "conditions": "dose 0.001-0.1 µg, time 14.0 day"}, "Mus musculus [12]": {"system": "Mus musculus", "test": "Immuno-adjuvant activity in H3N2-split A/Victoria/210/2009 influenza virus-immunized BALB/c mouse model assessed as increase in influenza specific serum IgG titer level at 0.001 to 0.1 ug,IM administered on day 0 and 14 and measured after 28 days by ELISA", "format": "functional, organism-based", "conditions": "dose 0.001-0.1 µg, time 28.0 day"}, "Mus musculus [13]": {"system": "Mus musculus", "test": "Immuno-adjuvant activity in H3N2-split A/Victoria/210/2009 influenza virus-immunized BALB/c mouse model assessed as increase in influenza specific serum IgG1 titer level at 0.001 to 0.1 ug,IM administered on day 0 and 14 and measured after 28 days by ELISA", "format": "functional, organism-based", "conditions": "dose 0.001-0.1 µg, time 28.0 day"}, "Mus musculus [14]": {"system": "Mus musculus", "test": "Immuno-adjuvant activity in H3N2-split A/Victoria/210/2009 influenza virus-immunized BALB/c mouse model assessed as increase in influenza specific serum IgG2a titer level at 0.001 to 0.1 ug,IM administered on day 0 and 14 and measured after 28 days by ELISA", "format": "functional, organism-based", "conditions": "dose 0.001-0.1 µg, time 28.0 day"}, "[15]": {"test": "Toxicity in H3N2-split A/Victoria/210/2009 influenza virus-immunized BALB/c mouse model assessed as abnormality at 0.001 to 0.1 ug,IM administered on day 0 and 14 and measured after 28 days", "conditions": "in vivo, 672 h, dose 0.001-0.1 µg, time 28 day"}, "[16]": {"test": "Toxicity in H3N2-split A/Victoria/210/2009 influenza virus-immunized BALB/c mouse model assessed as reactogenicity at 0.001 to 0.1 ug,IM administered on day 0 and 14 and measured after 28 days", "conditions": "in vivo, 672 h, dose 0.001-0.1 µg, time 28 day"}, "Mus musculus [17]": {"system": "Mus musculus", "test": "Immuno-adjuvant activity in H3N2-A/HK/68 influenza virus-immunized BALB/c mouse model assessed as increase in survival rate at 10 ug,INH administered 48hrs prior to influenza challenge and measured after 18 days", "format": "functional", "conditions": "dose 10 µg, time 18 day"}, "Mus musculus [18]": {"system": "Mus musculus", "test": "Immuno-adjuvant activity in H3N2-A/HK/68 influenza virus-immunized BALB/c mouse model assessed as increase in survival rate at 1 ug,INH administered 48hrs prior to influenza challenge and measured after 18 days", "format": "functional", "conditions": "dose 1 µg, time 18 day"}, "[19]": {"test": "Toxicity in H3N2-A/HK/68 influenza virus-immunized BALB/c mouse model assessed as body weight change at 1 to 10 ug,INH administered 48hrs prior to influenza challenge and measured after 18 days", "conditions": "in vivo, inhaled_or_intranasal, 432 h, dose 1-10 µg, time 18 day"}, "[20]": {"test": "Toxicity in H3N2-A/HK/68 influenza virus-immunized BALB/c mouse model assessed as disease index at 1 to 10 ug,INH administered 48hrs prior to influenza challenge and measured after 18 days", "conditions": "in vivo, inhaled_or_intranasal, 432 h, dose 1-10 µg, time 18 day"}, "[21]": {"test": "Toxicity in H3N2-A/HK/68 influenza virus-immunized BALB/c mouse model assessed as change in body temperature at 1 to 10 ug,INH administered 48hrs prior to influenza challenge and measured after 18 days", "conditions": "in vivo, inhaled_or_intranasal, 432 h, dose 1-10 µg, time 18 day"}}, "note": "The source made the active and inactive calls. No cut-off for these calls is given here.", "data": [{"smiles": "CCCCCCCCCCC[C@H](CC(=O)N[C@H]1[C@H](OC[C@H](NC(=O)C[C@@H](CCCCCCCCCCC)OCCCCCCCCCC)C(=O)O)O[C@H](CO)[C@@H](OP(=O)(O)O)[C@@H]1OC(=O)C[C@@H](CCCCCCCCCCC)OCCCCCCCCCC)OCCCCCCCCCC", "values": [{"measurement": "EC50", "setting": "Toll-like receptor 4 [1]", "result": 0.93, "unit": "nM"}, {"measurement": "EC50", "setting": "Toll-like receptor 4 [2]", "result": 0.015, "unit": "nM"}, {"measurement": "Stability", "setting": "[3]", "result": "Stable"}, {"measurement": "EC50", "setting": "Toll-like receptor 4 [4]", "result": 0.005, "unit": "nM"}, {"measurement": "EC50", "setting": "Toll-like receptor 4 [5]", "result": 0.06, "unit": "nM"}, {"measurement": "EC50", "setting": "Toll-like receptor 4 [6]", "result": 0.01, "unit": "nM"}, {"measurement": "EC50", "setting": "Toll-like receptor 4 [7]", "result": 0.26, "unit": "nM"}, {"measurement": "EC50", "setting": "Toll-like receptor 4 [8]", "result": 0.028, "unit": "nM"}, {"measurement": "EC50", "setting": "Toll-like receptor 4 [9]", "result": 0.014, "unit": "nM"}, {"measurement": "Activity", "setting": "Mus musculus [10]", "result": "Dose-Dependent Effect"}, {"measurement": "Activity", "setting": "Mus musculus [11]", "result": "Dose-Dependent Effect"}, {"measurement": "Activity", "setting": "Mus musculus [12]", "result": "Active"}, {"measurement": "Activity", "setting": "Mus musculus [13]", "result": "Active"}, {"measurement": "Activity", "setting": "Mus musculus [14]", "result": "Active"}, {"measurement": "Activity", "setting": "[15]", "result": "Non-Toxic"}, {"measurement": "Activity", "setting": "[16]", "result": "Non-Toxic"}, {"measurement": "Survival", "setting": "Mus musculus [17]", "result": 100, "unit": "%"}, {"measurement": "Survival", "setting": "Mus musculus [18]", "result": 60, "unit": "%"}, {"measurement": "Activity", "setting": "[19]", "result": "Non-Toxic"}, {"measurement": "Activity", "setting": "[20]", "result": "Non-Toxic"}, {"measurement": "Activity", "setting": "[21]", "result": "Non-Toxic"}]}]}
